Experimental data taken from paper PMC11369877 (Therapeutic Advances in Medical Oncology, 2024).

How the values were obtained:
[1] = test system: Asian patients; details: palbociclib plus letrozole, PALOMA-4 trial; cited from earlier work
[2] = human, in vivo

Compound | neutropenia, grade 3 [1] [%] | neutropenia, grade 4 [1] [%] | geometric mean Rac,AUC [2]
CC(=O)c1c(C)c2cnc(Nc3ccc(N4CCNCC4)cn3)nc2n(C2CCCC2)c1=O [palbociclib] | 72 | 12.5 | –
N#Cc1ccc(C(c2ccc(C#N)cc2)n2cncn2)cc1 [letrozole] | – | – | 6.25–6.41
CC(C)(C#N)c1cc(Cn2cncn2)cc(C(C)(C)C#N)c1 [anastrozole] | – | – | 3.66–4.15
